Assay results reported in patent US8637518B2, “Pyridazinone derivatives” (MERCK PATENT GmbH, priority 2008, dated 2014).

How the values were obtained:
TPR-Met/NIH3T3 cells = test: In-vivo tests: tumour volume in mice injected subcutaneously with TPR-Met/NIH3T3 cells; details: female Balb/C mice, subcutaneous TPR-Met/NIH3T3 tumours, 200 mg/kg daily by gastric tube, 9 days
Method: Experimental procedure: Female Balb/C mice (breeder: Charles River Wiga) were 5 weeks old on arrival. They were acclimatised to our keeping conditions for 7 days. Each mouse was subsequently injected subcutaneously in the pelvic area with 4 million TPR-Met/NIH3T3 cells in 100 μl of PBS (without Ca++ and Mg++). […] 100 μl of vehicle (0.25% methylcellulose/100 mM acetate buffer, pH 5.5) were administered daily to the control group, and 200 mg/kg of “A56” or “A91” dissolved in the vehicle (volume likewise 100 μl/animal) were administered daily to the treatment groups, in each case by gastric tube.
Measurement of the tumour volume: The length (L) and breadth (B) were measured using a Vernier calliper, and the tumour volume was calculated from the formula L×B×B/2.
Keeping conditions: 4 or 5 animals per cage, feeding with commercial mouse food (Sniff).

Met kinase = target: T1, Met kinase (Homo sapiens, UniProt P08581); test: Met kinase inhibition, enzyme assay (flashplate method); assay type: biochemical
T1 construct: 6His (N); purchased Upstate 14-526; host or cells: Sf21 insect cells (S. frugiperda), baculovirus
T1 sequence (P08581 974-1390 limits assumed): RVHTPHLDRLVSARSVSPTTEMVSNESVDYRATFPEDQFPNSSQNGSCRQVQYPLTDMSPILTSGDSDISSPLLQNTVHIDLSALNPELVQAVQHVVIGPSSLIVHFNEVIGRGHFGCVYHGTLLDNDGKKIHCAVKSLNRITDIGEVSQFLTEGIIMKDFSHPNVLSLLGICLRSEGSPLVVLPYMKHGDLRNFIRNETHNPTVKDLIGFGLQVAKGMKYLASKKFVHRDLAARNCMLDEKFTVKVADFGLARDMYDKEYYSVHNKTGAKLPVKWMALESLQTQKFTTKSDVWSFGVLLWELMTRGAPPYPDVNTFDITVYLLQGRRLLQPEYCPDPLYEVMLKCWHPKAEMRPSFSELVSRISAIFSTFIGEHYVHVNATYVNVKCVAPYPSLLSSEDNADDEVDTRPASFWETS
Description: According to the manufacturer's data (Met, active, upstate, catalogue No. 14-526), Met kinase is expressed for the purposes of protein production in insect cells (Sf21; S. frugiperda) and subsequent affinity-chromatographic purification as “N-terminal 6His-tagged” recombinant human protein in a baculovirus expression vector.
The test plates used are 96-well Flashplate® microtitre plates from Perkin Elmer (Cat. No. SMP200). The components of the kinase reaction described below are pipetted into the assay plate. The Met kinase and the substrate poly Ala-Glu-Lys-Tyr, (pAGLT, 6:2:5:1), are incubated for 3 hrs at room temperature with radioactively labelled ^33P-ATP in the presence and absence of test substances in a total volume of 100 μl. The reaction is terminated using 150 μl of a 60 mM EDTA solution. After incubation for a further 30 min at room temperature, the supernatants are filtered off with suction, and the wells are washed three times with 200 μl of 0.9% NaCl solution each time. The measurement of the bound radioactivity is carried out by means of a scintillation measuring instrument (Topcount NXT, Perkin-Elmer).
The full value used is the inhibitor-free kinase reaction. This should be approximately in the range 6000-9000 cpm. The pharmacological zero value used is staurosporin in a final concentration of […]. The inhibitory values ([…]) are determined using the RS1_MTS program.
Kinase reaction conditions per well:
• 30 μl of assay buffer • 10 μl of substance to be tested in assay buffer with 10% of DMSO • 10 μl of ATP (final concentration 1 μM cold, 0.35 μCi of ^33P-ATP) • 50 μl of Met kinase/substrate mixture in assay buffer; • (10 ng of enzyme/well, 50 ng of pAGLT/well)
Solutions used: • Assay buffer:
50 mM HEPES • 3 mM magnesium chloride • 3 μM sodium orthovanadate • 3 mM manganese(II) chloride • 1 mM dithiothreitol (DTT)
pH=7.5 (to be set using sodium hydroxide) • Stop solution:
60 mM Titriplex III (EDTA) • ^33P-ATP: Perkin-Elmer; • Met kinase: Upstate, Cat. No. 14-526, Stock 1 μg/10 μl; spec. activity 954 U/mg; • Poly-Ala-Glu-Lys-Tyr, 6:2:5:1: Sigma Cat. No. P1152 In-vivo tests

Cn1cc(-c2ccc(=O)n(Cc3cccc(-c4ncc(OC[C@H]5C[C@@H]5CN)cn4)c3)n2)cn1 [Compound A18, 2-{3-[5-((1S,2S)-2-Aminomethylcyclopropylmethoxy)pyrimidin-2-yl]benzyl}-6-(1-methyl-1H-pyrazol-4-yl)-2H-pyridazin-3-one]
antitumoural action (TPR-Met/NIH3T3 cells): significant antitumoural action | IC50 (Met kinase): 10 to 1000 nM

Cn1cc(-c2ccc(=O)n(Cc3cccc(-c4ncc(OC5CCC(O)C5)cn4)c3)n2)cn1 (stereo not shown) [Compound A22, 2-{3-[5-(3-hydroxycyclopentyloxy)pyrimidin-2-yl]benzyl}-6-(1-methyl-1H-pyrazol-4-yl)-2H-pyridazin-3-one]
antitumoural action (TPR-Met/NIH3T3 cells): significant antitumoural action

COc1cnc(-c2cccc(Cn3nc(-c4cccc(C#N)c4)ccc3=O)c2)nc1 [Compound D3, 3-{1-[3-(5-Methoxypyrimidin-2-yl)benzyl]-6-oxo-1,6-dihydropyridazin-3-yl}-benzonitrile]
melting point: 229 to 230 °C
